# Columns and labels:
# [1] = tested on: E. coli K12 strain MG1655 stationary phase cells; experiment: Potentiation assays on stationary phase cultures (metabolites / oxygen plus antibiotic, CFU/mL); type: cell-based, Escherichia coli; settings: for killing of stationary phase E. coli with glucose-fumarate supplementation: different antibiotic concentrations
# [2] = tested on: M. smegmatis strain mc^2 155; experiment: Potentiation assay, glucose-fumarate sensitization of stationary phase culture; type: cell-based, Mycobacterium smegmatis; settings: aerated stationary phase; 0.4% fumarate and/or 0.4% glucose
# [3] = tested on: E. coli K12 strain MG1655; type: cell-based, Escherichia coli
# Protocol: At each time point, cells were also serially diluted in PBS and plated on LB agar plates to determine the CFU/mL at the time of treatment. Time points were taken until cells reached maximum carrying capacity. After 24 hours of treatment, 100 μl of cells from each tube was spun down and re-suspended in PBS on a 96-well plate. Cells were then serially diluted and plated on LB agar plates. The CFU/mL at treatment was normalized by the CFU/mL of stationary phase cells (% max CFU/ml).
# An overnight culture of E. coli was diluted 1/10, 1/100, 1/1000, and 1/10000 in non-baffled flasks. […] Cells were spun down and re-suspended in PBS, diluted and plated on LB agar plates to determine CFU/ml.
# S. aureus = settings: exponentially growing cultures (1% maximal density)
# M. smegmatis [4] = experiment: Minimum inhibitory concentration (MIC); type: cell-based, Mycobacterium smegmatis; settings: Mycolicibacterium smegmatis
# M. smegmatis [5] = settings: exponentially growing cultures (1% maximal density)
# [6] = MOPS rich media, shaking, 1 μg/mL ciprofloxacin
compound,measurement,setting,value
O=C(O)/C=C/C(=O)O [fumarate],sensitization of stationary phase cultures to ciprofloxacin by the supplement alone,[1]; [6],none of these electron acceptors alone was able to sensitize cells
same,sensitization of high-density cultures to ciprofloxacin by electron acceptor in combination with glucose,"[1]; MOPS rich media, shaking, 1 μg/mL ciprofloxacin, with glucose",synergistically sensitized
same,sensitization of stationary phase cultures to ciprofloxacin,[2],weakly
O=O [oxygen],susceptibility of stationary phase E. coli to ciprofloxacin with supplementation,"[1]; static stationary phase culture, 0.4% glucose, bubbled air, oxygen tension 5-6%, 1 μg/mL ciprofloxacin",minimal effect
C[S+](C)[O-] [DMSO],sensitization of stationary phase cultures to ciprofloxacin by the supplement alone,[1]; [6],none of these electron acceptors alone was able to sensitize cells
CC1(C)S[C@@H]2[C@H](NC(=O)[C@H](N)c3ccccc3)C(=O)N2[C@H]1C(=O)O [ampicillin],killing of stationary phase E. coli with glucose-fumarate supplementation,[1],did not kill stationary phase cells
O=C(O)c1cn(C2CC2)c2cc(N3CCNCC3)c(F)cc2c1=O [ciprofloxacin],killing at 1 μg/mL (100xMIC),"[3]; 1 μg/mL ciprofloxacin, low and intermediate cell density",maximal killing at low cell density
same,ability to kill the high-density cell population (DDP),"[3]; dose 1000x the MIC, treatment time 24 hours",inability of ciprofloxacin to kill a fraction of the cell population
same,reduction in persister cells of ΔrelAspoT mutant compared to wildtype,"[3]; stationary phase, 1 μg/mL ciprofloxacin, ppGpp0 strain",5.5 fold
same,susceptibility of quinolone hypersensitive mutant recB,"[3]; ΔrecB mutant, stationary phase",hypersensitive in stationary phase
same,number of viable cells at higher doses,S. aureus,below the limit of detection
same,MIC,M. smegmatis [4],0.5 µg/mL
same,number of viable cells at higher doses,M. smegmatis [5],below the limit of detection
"O=[N+]([O-])[O-].[K+] [nitrate, potassium nitrate]",sensitization of stationary phase cultures to ciprofloxacin by the supplement alone,[1]; [6],none of these electron acceptors alone was able to sensitize cells
gentamicin,killing of stationary phase E. coli with glucose-fumarate supplementation,[1],sensitized

# Reference: patent US10842874B2, “Sensitization of bacterial cells to quinolone antibiotics” (Massachusetts Institute of Technology, priority 2017, dated 2020)
